Where two headings read alike, the source gives them in different places.
What was measured:
urease = urease (Canavalia ensiformis, UniProt P07374); assay: biochemical; format: biochemical
Description: Figure S6. High resolution Proton NMR Spectrum of 3-chloro-N'- undecanoylbenzenesulfonohydrazide (4.13).
4.16. Urease Assay Protocol
The reaction mixtures, which included […] of enzyme solution and […] of buffers containing 100 mM urea, were incubated in 96-well plates at 30 °C for 15 min with […] of the test compounds (0.5 mM concentration). The urea concentrations were adjusted from 2 -24 mM for the kinetics evaluation. By quantifying ammonia production with Weatherburn's indophenol technique, urease activity was determined.. To each well, 45 μL of the phenol reagent (1% w/v phenol and 0.005% w/v sodium nitroprusside) and 70 μL of the alkali reagent (0.5% w/v NaOH and 0.1% active chloride NaOCl) were added. Using a microplate reader, the rising absorbance at 630 nm was observed after 50 minutes (Molecular Device, USA). In a final volume of […], each reaction was carried out three times. Using the software SoftMaxPro, the results (change in absorbance per minute) were processed (molecular Device, USA). The experiments were run at pH 6.8 throughout. The formula 100-(ODtest well/ODcontrol) 100 was […]
used to calculate the percentage of inhibition. Thiourea was used as the standard inhibitor for […]
4.17. α-Glucosidase Inhibitory Assay Protocol […]
phosphate buffer (pH=6.8), were incubated at 37°C for 15 min in a 96-well plate. 20 µl of p-nitrophenyl—D-glucopyranoside solution was further added as a substrate and again incubated for 20 min at 37 °C. Sodium carbonate (50 µl of 0.1M) was added to terminate the reaction. P-nitrophenol was liberated, during the reaction which was measured at 405n m u sing an ELISA […]
conditions by omitting test samples. All the experiments were carried out in triplicates. The percentage inhibition was calculated by the formula.
% Inhibition = [(Ac – As) /Ac] × 100 Ac-absorbance for control, As-absorbance for standard.
4.18. Molecular Docking Assay
In this study the synthesized compounds were analyzed against α-amylase and α-glucosidase enzyme. […]

Alternaria alternate = assay: Anti-fungal activity; format: cell-based; settings: against Alternaria alternate, standard drug Terinafine
[1] = read-out: Anti-Urease IC50 (µM ± SEM)

Sequence of urease (P07374 whole entry, looked up): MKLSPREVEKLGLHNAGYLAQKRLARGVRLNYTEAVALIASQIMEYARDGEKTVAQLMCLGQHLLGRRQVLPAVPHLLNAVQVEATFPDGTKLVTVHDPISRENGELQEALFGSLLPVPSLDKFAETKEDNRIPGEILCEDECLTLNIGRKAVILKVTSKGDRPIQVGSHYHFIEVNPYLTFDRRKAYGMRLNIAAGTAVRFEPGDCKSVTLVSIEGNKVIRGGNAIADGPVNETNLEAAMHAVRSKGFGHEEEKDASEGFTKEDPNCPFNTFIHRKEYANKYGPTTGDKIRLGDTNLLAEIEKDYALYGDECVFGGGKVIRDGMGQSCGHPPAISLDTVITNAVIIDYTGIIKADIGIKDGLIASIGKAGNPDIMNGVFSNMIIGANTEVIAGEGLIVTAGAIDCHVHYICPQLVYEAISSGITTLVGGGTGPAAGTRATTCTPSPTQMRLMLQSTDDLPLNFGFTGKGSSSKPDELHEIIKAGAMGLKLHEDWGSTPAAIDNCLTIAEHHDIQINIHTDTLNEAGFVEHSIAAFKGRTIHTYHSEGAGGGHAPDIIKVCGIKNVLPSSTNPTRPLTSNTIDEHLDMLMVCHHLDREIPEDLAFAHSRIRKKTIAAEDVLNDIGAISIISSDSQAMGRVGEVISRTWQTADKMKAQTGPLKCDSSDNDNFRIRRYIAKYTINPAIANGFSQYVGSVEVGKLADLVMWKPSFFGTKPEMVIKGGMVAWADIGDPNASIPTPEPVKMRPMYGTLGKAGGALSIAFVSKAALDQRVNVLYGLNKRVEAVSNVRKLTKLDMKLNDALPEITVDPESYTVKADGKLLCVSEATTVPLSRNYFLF

Structure (SMILES)	IC50 (urease)	anti-fungal activity (Alternaria alternate)	IC50 (urease; [1])	melting point
CCCCC(=O)NNS(=O)(=O)c1ccc(F)cc1[N+](=O)[O-] [Analog 5]	2.1 ± 0.1 µM	exhibited anti-fungal profiles		
CCCCCCCCCCC(=O)NNS(=O)(=O)c1cccc(Cl)c1 [Analog 13, 3-chloro-N'-undecanoylbenzenesulfonohydrazide]			18.4 ± 0.3 µM	168 to 169 °C
NC(N)=S [thiourea, reference compound]			7.8 µM	
